Test results from patent publication US12239133B2, “Herbicidal composition” (ISHIHARA SANGYO KAISHA, LTD., priority 2019, dated 2025).

Columns and labels:
Assay type in all cases: in vivo
[1] = test system: velvetleaf (Abutilon theophrasti Medik.); test: Example 2: pot test, foliar treatment of velvetleaf, visual growth inhibition rate; settings: 15th day after foliar treatment
Procedure: (§1) Upland field soil was put into a 1/1,000,000 hectare pot, and seeds of velvetleaf (Abutilon theophrasti Medik.) were sown. […] Further, the growth inhibition rate (expected value) was calculated in accordance with the Colby's formula.

[2] = test system: velvetleaf (Abutilon theophrasti Medik.); test: Example 3: pot test, foliar treatment of velvetleaf, pyroxsulam versus penoxsulam
Procedure: as §1

[3] = test system: velvetleaf (Abutilon theophrasti Medik.); test: Example 1: pot test, foliar treatment of velvetleaf, visual growth inhibition rate; settings: 12th day after foliar treatment
Procedure: as §1

## CCn1ncc(C(=O)c2ccc(S(C)(=O)=O)c(OCCOC)c2C)c1OC(C)OC(=O)OC (stereo not drawn) [Tolpyralate, tolpyralate]
[1]; dose 2.5 g/ha
  Growth inhibition rate (%) Measured value (A): 37%
[2]; dose 2.5 g/ha, 8th day after foliar treatment
  Growth inhibition rate (%) Measured value (A): 10%
[3]; dose 2.5 g/ha
  Growth inhibition rate (%) Measured value (A): 20%
[3]; dose 3.75 g/ha
  Growth inhibition rate (%) Measured value (A): 27%

## COc1cc(OC)n2nc(NS(=O)(=O)c3c(C(F)(F)F)ccnc3OC)nc2n1 [Pyroxsulam, pyroxsulam]
[1]; dose 0.125 g/ha
  Growth inhibition rate (%) Measured value (A): 0%
[1]; dose 0.25 g/ha
  Growth inhibition rate (%) Measured value (A): 0%
[1]; dose 0.5 g/ha
  Growth inhibition rate (%) Measured value (A): 0%
[1]; dose 3 g/ha
  Growth inhibition rate (%) Measured value (A): 20%
[1]; dose 4 g/ha
  Growth inhibition rate (%) Measured value (A): 30%
[1]; dose 5 g/ha
  Growth inhibition rate (%) Measured value (A): 33%
[1]; dose 6 g/ha
  Growth inhibition rate (%) Measured value (A): 35%
[2]; dose 0.5 g/ha, 8th day after foliar treatment
  Growth inhibition rate (%) Measured value (A): 0%
[2]; dose 3 g/ha, 8th day after foliar treatment
  Growth inhibition rate (%) Measured value (A): 32%
[3]; dose 0.5 g/ha
  Growth inhibition rate (%) Measured value (A): 2%
[3]; dose 1.5 g/ha
  Growth inhibition rate (%) Measured value (A): 17%
[3]; dose 2.25 g/ha
  Growth inhibition rate (%) Measured value (A): 25%
[3]; dose 3 g/ha
  Growth inhibition rate (%) Measured value (A): 27%

## COc1cnc(OC)n2nc(NS(=O)(=O)c3c(OCC(F)F)cccc3C(F)(F)F)nc12 [Penoxsulam, penoxsulam]
[2]; Abutilon theophrasti, dose 0.5 g/ha, 8th day after foliar treatment, read-out: Growth inhibition rate (%) Measured value (A)
  inhibition at 0.5 g/ha: 0%
[2]; Abutilon theophrasti, dose 0.75 g/ha, 8th day after foliar treatment, read-out: Growth inhibition rate (%) Measured value (A)
  inhibition at […]: 0%
[2]; Abutilon theophrasti, dose 3 g/ha, 8th day after foliar treatment, read-out: Growth inhibition rate (%) Measured value (A)
  inhibition at 3 g/ha: 37%
[2]; combined with tolpyralate, summary in words of Table 3, 8th day
  grow inhibition compared with expected (Colby): a grow inhibition rate more than expected was not obtained
